From ChEMBL document CHEMBL3297728, “Synthesis and antituberculosis activity of novel 5-styryl-4-(hetero)aryl-pyrimidines via combination of the Pd-catalyzed Suzuki cross-coupling and S(N)(H) reactions” (Bioorg Med Chem Lett, 2014) come the findings set out here.

Converted amounts (≈) assume the structure as drawn.

The MIC is the lowest concentration that inhibits growth of the organism.

The subject of this assay is Mycobacterium tuberculosis. The assay can be described thus: Antimycobacterial activity against rifampin- and Isoniazid- resistant Mycobacterium tuberculosis Beijing harboring Ser 531-Leu 315 rpoB mutant and Ser-Thr katG mutant after 10 days by microbroth dilution method. It counts as functional. Background: Broth dilution looks for growth in wells or tubes with falling amounts of substance.
As for `Brc1cncnc1-c1cccs1`, the minimum inhibitory concentration (MIC) worked out at 0.7 µg/mL (≈ 2.9 µM).

`Brc1cncnc1-c1ccco1` displayed an MIC of 1.5 µg/mL (≈ 6.67 µM).

Turning to `C(=C\c1cncnc1-c1ccc(-c2cccs2)s1)/c1ccc(-c2ccccc2)cc1`, the MIC was determined as 1.5 µg/mL (≈ 3.55 µM).
